Measured values reported in patent publication US9029381B2, “Cyclopropyl amide derivatives” (Astrazeneca AB, priority 2007, dated 2015).

Tests used:
[1] = target: human Histamine H3 receptor (hH3R) (Homo sapiens (Human), UniProt Q9Y5N1); test: Guanosine 5'-O-(3-[35S]thio)triphosphate [GTPγS] binding assay; format: biochemical; conditions: antagonist mode vs (R)-α-methyl histamine 30 nM; membranes from CHO cells expressing hH3R
Procedure: (§1) The IC50 and nH can be determined by fitting the data to model 205 in XLfit: y=A+((B−A)/(1+((C/x)^D)). Guanosine 5′-O-(3-[^35S]thio)triphosphate [GTPγS] Binding Assay
A GTPγS binding assay can be used to investigate antagonist properties of compounds in CHO cells (Chinese Hamster Ovary) transfected with human Histamine H3 receptor (hH3R). Membranes from CHO cells expressing hH3R (10 μg/well) are diluted in GTPγS assay buffer (20 mM Hepes, 10 mM MgCl2, 100 mM NaCl, pH 7.4) and preincubated with saponine (3 μg/ml), GDP (10 μM) and PVT-WGA SPA beads (125 μg/well) (Amersham) for 30 minutes. To determine antagonist activity, (R)-α-methyl histamine (30 nM) is added in 96 well SPA plate with [^35S]GTPγS (0.2 nM) and various concentration of H3R antagonists. The GTPγS binding assay is started with addition of the mixture membrane/saponine/GDP and incubated for 90 minutes at room temperature. The amount of bound [^35S]GTPγS is determined by using the MicroBeta Trilux counter (PerkinElmer). The percentage of [^35S]GTPγS bound in each sample is calculated as a percentage of that bound control sample incubated in absence of H3 antagonist. Duplicate determinations are obtained for each concentration, and the data are analyzed using ExcelFit4 to obtain the IC50.

[2] = target: human histamine H3 receptors (Homo sapiens (Human), UniProt Q9Y5N1); test: Histamine H3 SPA with the agonist radioligand [3H]-N-α-methylhistamine (hH3 binding); conditions: inhibition of [3H]-N-α-methylhistamine (1.4 nM) binding to CHO-K1 membranes expressing full-length human H3 (isoform 445)
Sequence of human histamine H3 receptors (Q9Y5N1 whole entry, canonical isoform): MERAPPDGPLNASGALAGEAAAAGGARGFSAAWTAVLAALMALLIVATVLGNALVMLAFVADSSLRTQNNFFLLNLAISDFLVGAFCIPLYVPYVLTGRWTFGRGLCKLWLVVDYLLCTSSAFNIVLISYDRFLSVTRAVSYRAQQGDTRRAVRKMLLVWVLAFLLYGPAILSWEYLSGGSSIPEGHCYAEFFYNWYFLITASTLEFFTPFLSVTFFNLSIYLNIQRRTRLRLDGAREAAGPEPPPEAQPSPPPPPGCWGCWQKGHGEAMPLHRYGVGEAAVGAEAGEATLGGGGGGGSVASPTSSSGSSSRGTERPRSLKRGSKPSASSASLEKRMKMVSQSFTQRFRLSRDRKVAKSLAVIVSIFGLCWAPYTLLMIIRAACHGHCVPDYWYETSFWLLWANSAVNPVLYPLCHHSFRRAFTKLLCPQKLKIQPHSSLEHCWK
Procedure: Histamine H3 SPA with the Agonist Radioligand [^3H]-N-α-Methylhistamine
The H3 binding assay was/can be used to evaluate the ability of at least one compound in accordance with formula I, Ia, Ib, and/or Ic to inhibit [^3H]-N-α-methylhistamine binding to CHO-K1 membranes expressing human histamine H3 receptors (full-length H3, the most prevalent brain isoform 445). In 200 μl 96-well SPA format, human H3 membranes (12.5 μg protein/well) and 1.4 nM [^3H]-N-α-methylhistamine were/can be incubated with at least one compound in accordance with formula I, Ia, Ib, and/or Ic for 1.5 hrs to determine percent effect with respect to total (1% DMSO) and non-specific binding (10 μM imetit). […] Single poke (SP) testing can be done in triplicate.
Membranes, prepared from CHO-K1 cells stably expressing the human histamine H3 receptor, can be obtained from ACS.
Tested formula I, Ia, Ib, and/or Ic compounds were/can be provided as solubilized samples in neat DMSO. Serial dilutions were/can be performed in DMSO.
Plates were/can be 96-well Unifilter GF/B (Perkin Elmer, 6005177). Plates were/can be read on a Perkin Elmer TopCount. CPM data was/can be used to analyze unless DPM data generated by a quench curve was/is required.
• 1. 1 mg/ml BSA was/can be added to assay buffer (AB) on day of assay. • 2. Amounts required for bead/membrane pool in AB were/can be calculated: “P”−need 17.1 ml/assay plate+10 ml PlateMate excess. Buffer volume was/can be split between beads and membranes to allow for polytroning of membranes prior to addition to beads. • a. […] A minimum of 15 minutes was/can be waited prior to adding membranes (See b. below). • b. Membranes (hH3 membranes from CHO cells containing recombinant human H3 receptors, 11.7 mg/ml): membranes were/can be removed from −80° C. and thawed in RT waterbath. (0.0702 mg/ml×P) mg of membranes were/can be resuspended in the remaining volume not used with beads above for 12.5 μg/well final and homogenized briefly at polytron speed 5.0. The homogenized membrane mixture was/can be combined with the beads and a minimum of 30 minutes was/can be waited prior to dispensing to plate. • 3. Formula I, Ia, Ib, and/or Ic compounds: For Single Poke, 2 μl mM of a compound in accordance with formula I, Ia, Ib, and/or Ic was/can be dispensed to Optiplates (triplicate plates) for final a concentration of 10 μM. […] Imetit (see below) was/can be used as a control. • 4. […] [^3H]-N-α-methylhistamine ([^3H]-NAMH): A solution in AB at 14 nM, 10× final concentration of 1.4 nM was/can be prepared. 5 μl samples were/can be calculated in quadruplicate on the 13 counter. If concentration was/is 12-14.5 nM, no adjustment was/is may be required. (For IC50s, use final concentration on calculation tab of ABase template.) Assay • 1. […] 2 μl of the formula I, Ia, Ib, and/or Ic compound dilution was/can be mixed and then transferred into assay plates. DMSO was/can be removed and 2 μl of 100 μM Imetit was/can be added to the wells. • 3. 178 μl bead/membrane mixture was/can be dispensed into the assay plate. • 4. 20 μl [^3H]-NAMH was/can be added with Rapid Plate. The assay plate was/can be sealed and incubated for 1.5 hr on RT shaker at speed ˜6.5. • 5. The assay plate was/can be subsequently centrifuged at 1000 rpm for 10 minutes. • 6. The count was/can be performed on TopCount using one of the 3H SPA H3 Quench programs.
The DPM data was/can be analyzed when tSIS was/is less than that associated with 70% of full scale on the quench curve (tSIS<25%). Otherwise, CPM data was/is used.
as §1

Sequence of human Histamine H3 receptor (hH3R) (Q9Y5N1 whole entry): as the sequence (Q9Y5N1 whole entry, canonical isoform) above

Row | IC50 [1] [nM] | IC50 [2] [nM] | Structure (SMILES)
1 | 20.2 |  | O=C([C@H]1C[C@@H]1c1ccc(-c2cncnc2)cc1)N1CCN(C2CCC2)CC1 [Example 46, (4-cyclobutylpiperazin-1-yl)((1S,2S)-2-(4-(pyrimidin-5-yl)phenyl)cyclopropyl)methanone]
2 | 5.83 | 14.4 | NC(=O)c1ccc([C@@H]2C[C@H]2C(=O)N2CCN(C3CCC3)CC2)cc1 (relative stereo) [Example 42, 4-((trans)-2-(4-cyclobutylpiperazine-1-carbonyl)cyclopropyl)benzamide]
3 | > 1800 |  | O=C([C@@H]1C[C@H]1c1cccc(N2CCCC2=O)c1)N1CCN(C2CCC2)CC1 (single isomer, unassigned; enantiomer 2) [Example 39, 1-(3-((trans)-2-(4-cyclobutylpiperazine-1-carbonyl)cyclopropyl)phenyl)pyrrolidin-2-one, enantiomer 2]
4 | 23.9 | 5.09 | O=C([C@H]1C[C@@H]1c1cccc(N2CCCC2=O)c1)N1CCN(C2CCC2)CC1 (relative stereo) [Example 34, trans-1-(3-(2-(4-Cyclobutylpiperazine-1-carbonyl)cyclopropyl)phenyl)pyrrolidin-2-one]
5 | 8.59 |  | CS(=O)(=O)Nc1cccc([C@@H]2C[C@H]2C(=O)N2CCN(C3CCC3)CC2)c1 (relative stereo) [Example 30, trans-N-{3-[2-(4-Cyclobutylpiperazine-1-carbonyl)cyclopropyl]phenyl}methanesulfonamide]

The next lines start with the compound.

Row | Structure (SMILES) | IC50 [1] [nM] | IC50 [2] [nM]
6 | O=C([C@H]1C[C@@H]1c1ccccc1)N1CCN(C2CCC2)CC1 [Example 24, (4-cyclobutylpiperazin-1-yl)((1S,2S)-2-phenylcyclopropyl)methanone] | 3.41 | 3.49
7 | CCCN1CCN(C(=O)[C@H]2C[C@@H]2c2ccccc2)CC1 (relative stereo) [Example 7, trans-(2-Phenylcyclopropyl)-(4-propylpiperazin-1-yl)methanone] | 39.7 | 146
8 | O=C([C@@H]1C[C@H]1c1ccccc1)N1CCN(C2CCC2)CC1 [Example 25, (4-cyclobutylpiperazin-1-yl)((1R,2R)-2-phenylcyclopropyl)methanone] | 870 | 6420
9 | O=C([C@H]1C[C@@H]1c1ccc(Br)cc1)N1CCN(C2CCC2)CC1 [Example 14, (1S,2S)-(2-(4-bromophenyl)cyclopropyl)(4-cyclobutylpiperazin-1-yl)methanone] | 6.81 | 16.8
10 | O=C([C@H]1C[C@@H]1c1ccc(N2CCCC2=O)cc1)N1CCN(C2CCC2)CC1 (relative stereo) [Example 17, trans-1-{4-[2-(4-Cyclobutylpiperazine-1-carbonyl)cyclopropyl]phenyl}pyrrolidin-2-one] | 196 | 433
11 | O=C([C@H]1C[C@@H]1c1ccc(-c2cn[nH]c2)cc1)N1CCN(C2CCC2)CC1 (relative stereo) [Example 20, trans-{2-[4-(1H-Pyrazol-4-yl)phenyl]cyclopropyl}-(4-cyclobutylpiperazin-1-yl)methanone] | 33.9 | 29.1
12 | O=C([C@@H]1C[C@H]1c1ccc(Br)cc1)N1CCN(C2CCC2)CC1 [Example 15, (1R,2R)-(2-(4-bromophenyl)cyclopropyl)(4-cyclobutylpiperazin-1-yl)methanone] | 262 | 3400
